Measurements as given in patent publication US20140178898A1, “Method for Detecting Fat-Reducing Compounds” (National Central University, priority 2012, published 2014).

Tests used:
Assay type in all cases: cell-based
3T3-L1 adipocytes [1] = assay: 2-deoxyglucose (2-DOG) uptake assay, EGCG alone
Protocol: (§1) In the first step (S1), which provides a clone of adipocytes to be cultured on a culture dish, the adipocytes are 3T3-L1 adipocytes (American Type Culture Collection, Manassas, Va.). 3T3-L1 adipocytes are differentiated from 3T3-L1 preadipocytes. To obtain the adipocytes, preadipocytes are seeded at a number of 6×10^4 cells per well on a sterile 12-well plate. After 3 and 5 days of the plating, the medium is changed and replaced with a new medium containing a differentiation agent, respectively. Day 0 of differentiating cells is set at the day when the differentiating agent is added in the beginning. The medium is the Dulbecco's Modified Eagle's Medium (DMEM) containing 10% fetal bovine serum (FBS), 100 U/ml of penicillin, and 100 μg/ml streptomycin. The differentiation agent is a cocktail solution containing a final concentration of 0.5 mM 3-Isobutyl-1-methylxanthine (IBMX), 5 μg/ml insulin, and 1 μM dexamethasone (DEX). After the 2-day incubation of the differentiation agent, the medium is changed to DMEM containing 10% FBS and 5 μg/ml insulin for an additional 4 days, and it is replaced with a new medium every 2 days. Day 6 differentiating cells are grown in DMEM containing 10% FBS for an additional 4 days. The medium is changed every 2 days. A total of 10 days is used for the process of differentiation to obtain the differentiated adipocytes and the cells are used for later experiments.
(§2) The first example of the present invention is to show a use of 2-deoxyglucose uptake assay for detecting the transportation activity of glucose transporter protein in the adipocytes (FIG. 2). This purpose is also to clarify the effect of different concentrations of EGCG on the IGF-I-induced and IGF-II-induced glucose uptake. At the first, the different concentrations of EGCG are added into the adipocytes, such as 1, 2, 5, 10, 20 and 50 μM. The duration of the EGCG pretreatment is defined as a first time and it is 120 minutes, wherein the first time period can range from 30 to 120 minutes, but it is not limited thereto. Then, the exposed time of 10 minutes to 10 nM IGF-I or 10 nM IGF-II is defined as a second time, wherein the second time can be 5 minutes shorter or last for 30 minutes, but it is not limited thereto. […] Then, 500 μl of RadioImmunoPrecipitation Assay (RIPA) buffer is added for fracturing the cells; 450 μl of cell solution is collected to evenly mix with 4 ml of scintillation liquid in a vial for a detection of radioactivity through a β-counter.
This invention provides a second example for clarifying the time course effects of EGCG on the IGF-stimulated glucose uptake in adipocytes (FIG. 3). […] After the incubation, the radioactivity is measured to indicate the transportation activity of glucose transporter protein in the adipocytes.

3T3-L1 adipocytes [2] = assay: 2-deoxyglucose (2-DOG) uptake assay, IGF-I-stimulated glucose uptake; settings: for IGF-I-stimulated increases in levels of adipocyte glucose uptake: then 10 nM IGF-I 10 minutes (FIG. 2A)
Protocol: as §1, §2
(§3) This invention provides a second example for clarifying the time course effects of EGCG on the IGF-stimulated glucose uptake in adipocytes (FIG. 3). […] After the incubation, the radioactivity is measured to indicate the transportation activity of glucose transporter protein in the adipocytes. […]

3T3-L1 adipocytes [3] = assay: 2-deoxyglucose (2-DOG) uptake assay, IGF-II-stimulated glucose uptake
Protocol: (§4) In the first step (S1), which provides a clone of adipocytes to be cultured on a culture dish, the adipocytes are 3T3-L1 adipocytes (American Type Culture Collection, Manassas, Va.). 3T3-L1 adipocytes are differentiated from 3T3-L1 preadipocytes. To obtain the adipocytes, preadipocytes are seeded at a number of 6×10^4 cells per well on a sterile 12-well plate. After 3 and 5 days of the plating, the medium is changed and replaced with a new medium containing a differentiation agent, respectively. Day 0 of differentiating cells is set at the day when the differentiating agent is added in the beginning. […]
The first example of the present invention is to show a use of 2-deoxyglucose uptake assay for detecting the transportation activity of glucose transporter protein in the adipocytes (FIG. 2). […] Then, 500 μl of RadioImmunoPrecipitation Assay (RIPA) buffer is added for fracturing the cells; 450 μl of cell solution is collected to evenly mix with 4 ml of scintillation liquid in a vial for a detection of radioactivity through a β-counter.
as §3

[4] = system: glucose transporter 1 (GLUT1); assay: Western blotting of GLUT1 protein in adipocyte fractions; settings: EGCG in the presence and absence of IGF-I and IGF-II (FIGS. 5A, 6A)
Protocol: as §4, with “beginning. The medium is the Dulbecco's Modified Eagle's Medium (DMEM) containing 10% fetal bovine serum (FBS), 100 U/ml of penicillin, and 100 μg/ml streptomycin.” for “beginning.”
In the fourth step (S4), which collects the adipocytes for a detection of the expression level of at least one specific protein to be a reference value (i.e. an indicator) for reducing fat or for decreasing the glucose transport by the test compound, the specific proteins are glucose transporter 1 (GLUT1) and glucose transporter 4 (GLUT4) proteins (FIGS. 5 and 6). Levels of GLUT1 and GLUT4 protein expression in the total lysate, plasma membrane, and low-density microsome are analyzed by Western blotting. […]

[5] = system: glucose transporter 4 (GLUT4); assay: Western blotting of GLUT4 protein in adipocyte fractions (translocation); settings: for GLUT4 protein levels in the plasma membrane of adipocytes: IGF at 10 nM (FIGS. 5B, 6B); for GLUT4 expression levels in the low-density microsome: IGF at 10 nM (FIGS. 5C, 6C)
Protocol: as §1
In the fourth step (S4), which collects the adipocytes for a detection of the expression level of at least one specific protein to be a reference value (i.e. an indicator) for reducing fat or for decreasing the glucose transport by the test compound, the specific proteins are glucose transporter 1 (GLUT1) and glucose transporter 4 (GLUT4) proteins (FIGS. 5 and 6). Levels of GLUT1 and GLUT4 protein expression in the total lysate, plasma membrane, and low-density microsome are analyzed by Western blotting. FIGS. 5A, 5B and 5C are presented when the culture medium is added with or without IGF-I; whereas, in FIGS. 6A, 6B and 6C, IGF-II is added to the culture medium.

## (−)-epigallocatechin gallate [EGCG]
3T3-L1 adipocytes [1]; 20 μM EGCG alone, 0.5, 1, or 2 hours (FIG. 3A)
  level of adipocyte glucose uptake: not
3T3-L1 adipocytes [1]; 20 μM EGCG alone, 4 hours (FIG. 3A)
  level of adipocyte glucose uptake: significantly altered
3T3-L1 adipocytes [1]; EGCG alone at 50 μM, 2 hours (FIG. 2A)
  adipocyte glucose uptake: significantly decreased
3T3-L1 adipocytes [1]; EGCG alone at 1, 2, 5, 10, and 20 μM, 2 hours of treatment (FIG. 2A)
  glucose uptake in the adipocytes: does not alter
3T3-L1 adipocytes [2]; 20 μM EGCG pretreatment for 0.5 hours, suppressive effect lasts for 4 hours, 10 nM IGF-I
  IGF-I-increased levels of adipocyte glucose uptake: inhibits
3T3-L1 adipocytes [2]; 20 μM EGCG, 2-hour treatment, 10 nM IGF-I
  IGF-I-increased level of adipocyte glucose uptake: decline to the corresponding level of glucose uptake to the control
3T3-L1 adipocytes [2]; 2-hour pretreatment with 1, 2, or 5 μM EGCG
  IGF-I-stimulated increases in levels of adipocyte glucose uptake: not
3T3-L1 adipocytes [2]; 2-hour pretreatment with 10, 20, and 50 μM EGCG
  IGF-I-stimulated increases in levels of adipocyte glucose uptake: suppresses
3T3-L1 adipocytes [3]; 0.5, 1, 2, and 4 hours after 20 μM EGCG pretreatment, 10 nM IGF-II
  increase in the level of adipocyte glucose uptake induced by IGF-II: significantly reduced
3T3-L1 adipocytes [3]; EGCG at 10, 20, and 50 μM, 2-hour pretreatment, 10 nM IGF-II (FIG. 2B)
  IGF-II-increased levels of glucose uptake in adipocytes: suppress
[4]
  levels of GLUT1 protein in the total lysate of the adipocytes: not altered
[5]; EGCG in the presence and absence of IGF-I and IGF-II (FIGS. 5A, 6A)
  levels of GLUT4 protein in the total lysate of the adipocytes: not altered
[5]; EGCG in the presence of IGF-I (FIG. 5B)
  IGF-increased levels of GLUT-4 protein in the plasma membrane: inhibits
[5]; EGCG in the presence of IGF-I (FIG. 5C)
  IGF-decreased levels of GLUT-4 protein in the low-density microsome: blocked
[5]; EGCG in the presence of IGF-II (FIG. 6B)
  IGF-increased levels of GLUT-4 protein in the plasma membrane: inhibits
[5]; EGCG in the presence of IGF-II (FIG. 6C)
  IGF-decreased levels of GLUT-4 protein in the low-density microsome: blocked
[5]; FIGS. 5B, 5C, 6B and 6C
  translocation of GLUT4 from the cytosol to plasma membrane of the adipocytes induced by IGF treatment: inhibited
[5]; pretreatment with EGCG alone
  GLUT-4 protein levels in the low-density microsome: does not change
  GLUT-4 protein levels in the plasma membrane: does not change

## IGF-I: insulin-like growth factor I, added to adipocytes at 10 nM
[5]
  GLUT4 protein levels in the plasma membrane of adipocytes: significantly increase
  GLUT4 expression levels in the low-density microsome: decrease

## IGF-II: insulin-like growth factor II, added to adipocytes at 10 nM
[5]
  GLUT4 protein levels in the plasma membrane of adipocytes: significantly increase
  GLUT4 expression levels in the low-density microsome: decrease
